From patent US8536354B2, “Steroidal ligands and their use in gene switch modulation” (Intrexon Corporation, priority 2008, dated 2013)
Converted amounts (≈) assume the structure as drawn. “And” between values parts separate entries of the source, which are not always exact repeats. Equal entries are not always repeated. Where two headings read alike, the source gives them in different places.

Legend:
[1] = test system: D. melanogaster BII cell line (expresses the ecdysteroid receptor complex EcR-USP); assay: Drosophila melanogaster BII cell line bioassay (turbidometric; agonist and antagonist versions)
[2] = target: T1, Manduca sexta EcR (MsEcR) (Manduca sexta, UniProt P49883); assay: Two-hybrid gene switch assay, MsEcR-CDEF in NIH3T3 cells; details: MsEcR; alternative 3T3 fibroblast cell stock
T1 sequence (P49883 293-531 limits assumed): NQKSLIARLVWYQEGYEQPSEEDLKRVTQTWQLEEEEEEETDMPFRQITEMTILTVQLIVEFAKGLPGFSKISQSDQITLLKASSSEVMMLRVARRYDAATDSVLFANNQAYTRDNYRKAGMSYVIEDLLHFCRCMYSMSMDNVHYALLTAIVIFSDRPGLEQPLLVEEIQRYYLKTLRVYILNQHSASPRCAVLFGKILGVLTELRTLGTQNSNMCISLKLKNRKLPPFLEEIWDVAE

[3] = target: T2, wild-type Drosophila melanogaster EcR (DmEcR-DEF) (Drosophila melanogaster, UniProt P34021); assay: Two-hybrid gene switch assay, DmEcR-DEF in NIH3T3 cells
T2 sequence (P34021 342-878 limits assumed): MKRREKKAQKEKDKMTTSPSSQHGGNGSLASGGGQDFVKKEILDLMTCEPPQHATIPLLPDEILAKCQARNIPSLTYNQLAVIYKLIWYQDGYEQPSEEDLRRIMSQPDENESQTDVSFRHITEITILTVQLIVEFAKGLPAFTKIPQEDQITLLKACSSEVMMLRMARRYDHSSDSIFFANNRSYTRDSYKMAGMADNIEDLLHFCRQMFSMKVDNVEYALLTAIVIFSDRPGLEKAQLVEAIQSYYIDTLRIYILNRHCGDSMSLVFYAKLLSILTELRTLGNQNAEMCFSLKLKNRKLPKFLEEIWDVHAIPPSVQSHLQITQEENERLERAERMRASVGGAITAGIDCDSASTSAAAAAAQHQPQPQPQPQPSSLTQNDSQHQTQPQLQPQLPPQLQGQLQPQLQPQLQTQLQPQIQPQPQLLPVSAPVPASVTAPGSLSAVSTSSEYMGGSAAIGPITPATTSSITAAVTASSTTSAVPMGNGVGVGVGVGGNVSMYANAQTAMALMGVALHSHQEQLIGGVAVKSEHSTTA

[4] = target: T3, wild-type Choristoneura fumiferana EcR (CfEcR-DEF) (Choristoneura fumiferana, UniProt O77255); assay: Two-hybrid gene switch assay, wild-type CfEcR-DEF (GAL4-EcR / VP16-RXR-USP chimera, luciferase) in NIH3T3 cells
T3 sequence (O77255 219-541): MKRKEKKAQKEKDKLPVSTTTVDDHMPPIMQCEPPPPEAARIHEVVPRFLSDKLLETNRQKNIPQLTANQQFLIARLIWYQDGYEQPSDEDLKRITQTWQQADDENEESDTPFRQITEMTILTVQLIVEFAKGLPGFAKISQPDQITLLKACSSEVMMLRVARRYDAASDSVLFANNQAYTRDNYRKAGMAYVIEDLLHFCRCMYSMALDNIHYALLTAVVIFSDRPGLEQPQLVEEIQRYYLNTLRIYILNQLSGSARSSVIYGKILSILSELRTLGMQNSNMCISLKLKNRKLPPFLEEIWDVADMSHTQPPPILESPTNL
T3 sequence (P28702 299-449 partner): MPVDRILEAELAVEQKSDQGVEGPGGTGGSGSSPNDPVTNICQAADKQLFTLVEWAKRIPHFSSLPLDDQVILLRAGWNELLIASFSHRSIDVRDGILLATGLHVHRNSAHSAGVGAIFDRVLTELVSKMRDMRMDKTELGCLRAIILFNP

[5] = target: T4, wild-type Aedes aegypti EcR (AaEcR-DEF) (Aedes aegypti, UniProt P49880); assay: Two-hybrid gene switch assay, AaEcR-DEF in NIH3T3 cells
T4 sequence (P49880 405-776 limits assumed): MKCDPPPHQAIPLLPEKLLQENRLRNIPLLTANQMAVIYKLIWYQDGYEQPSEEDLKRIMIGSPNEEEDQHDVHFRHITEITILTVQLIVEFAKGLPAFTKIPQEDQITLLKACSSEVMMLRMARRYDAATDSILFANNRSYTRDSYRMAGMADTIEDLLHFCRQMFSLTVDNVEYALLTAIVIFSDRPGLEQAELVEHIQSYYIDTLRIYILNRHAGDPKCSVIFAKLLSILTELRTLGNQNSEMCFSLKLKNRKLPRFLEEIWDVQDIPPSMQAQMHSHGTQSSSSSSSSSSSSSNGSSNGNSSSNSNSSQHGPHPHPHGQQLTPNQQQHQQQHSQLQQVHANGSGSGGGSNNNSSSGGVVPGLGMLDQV

[6] = target: VgEcR/RXR (Drosophila melanogaster, UniProt P34021, E282G/G283S/G286V)
VgEcR/RXR, sequence (P34021 whole entry E282G/G283S/G286V): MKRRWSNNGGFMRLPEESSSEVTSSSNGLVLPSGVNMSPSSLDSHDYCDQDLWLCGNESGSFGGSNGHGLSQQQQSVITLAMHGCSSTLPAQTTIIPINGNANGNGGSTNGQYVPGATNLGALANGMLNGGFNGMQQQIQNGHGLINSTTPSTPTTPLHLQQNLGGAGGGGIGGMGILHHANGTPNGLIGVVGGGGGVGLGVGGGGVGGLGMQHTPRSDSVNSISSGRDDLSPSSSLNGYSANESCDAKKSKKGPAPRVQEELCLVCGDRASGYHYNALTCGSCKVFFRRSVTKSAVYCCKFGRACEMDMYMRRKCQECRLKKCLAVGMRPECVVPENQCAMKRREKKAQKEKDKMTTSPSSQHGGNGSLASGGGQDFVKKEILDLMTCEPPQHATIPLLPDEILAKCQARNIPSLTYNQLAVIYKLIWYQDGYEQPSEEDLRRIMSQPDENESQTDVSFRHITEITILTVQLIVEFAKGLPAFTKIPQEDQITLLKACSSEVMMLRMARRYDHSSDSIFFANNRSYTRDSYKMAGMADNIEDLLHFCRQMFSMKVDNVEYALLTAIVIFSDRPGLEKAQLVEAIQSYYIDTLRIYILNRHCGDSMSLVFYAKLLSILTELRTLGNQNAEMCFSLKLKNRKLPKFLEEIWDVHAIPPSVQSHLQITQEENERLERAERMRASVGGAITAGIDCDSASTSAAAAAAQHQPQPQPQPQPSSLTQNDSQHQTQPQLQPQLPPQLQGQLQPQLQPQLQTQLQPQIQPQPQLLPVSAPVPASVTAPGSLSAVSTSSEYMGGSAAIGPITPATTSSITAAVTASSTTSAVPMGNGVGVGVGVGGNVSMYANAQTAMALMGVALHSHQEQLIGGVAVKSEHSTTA
VgEcR/RXR, sequence (P19793 whole entry, further chain): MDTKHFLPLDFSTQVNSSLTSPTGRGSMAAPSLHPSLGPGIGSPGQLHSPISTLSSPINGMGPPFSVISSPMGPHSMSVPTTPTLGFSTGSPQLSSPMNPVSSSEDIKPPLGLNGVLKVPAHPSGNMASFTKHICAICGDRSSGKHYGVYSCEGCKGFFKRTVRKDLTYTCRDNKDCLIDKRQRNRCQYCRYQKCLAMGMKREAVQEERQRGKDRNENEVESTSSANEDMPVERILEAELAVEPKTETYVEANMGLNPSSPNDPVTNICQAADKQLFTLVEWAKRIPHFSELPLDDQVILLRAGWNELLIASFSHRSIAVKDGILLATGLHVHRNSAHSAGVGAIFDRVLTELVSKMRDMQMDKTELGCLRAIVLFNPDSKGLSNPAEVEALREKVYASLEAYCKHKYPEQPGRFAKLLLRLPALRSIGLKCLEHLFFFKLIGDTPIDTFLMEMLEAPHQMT

[7] = test system: EcRs (lepidopteran and non-lepidopteran); assay: Two-hybrid gene switch assays, statements across the set of ten EcRs in NIH3T3 cells; details: for activity across the tested set of EcRs: FIGS. 13 and 14
[8] = Water solubility measurement (saturated solutions, 25° C., UV absorbance)
Protocol: (§1) Each shake flask was agitated for 60 minutes at room temperature, then allowed to stand for 1 hour at room temperature. […] Absorbance was compared to that of a reference standard at the same absorbance maximum for a 1-2% solution of the same steroid in CH3OH, allowing for up to 10 nM maxima shift due to solvent effect.

[9] = Log D measurement (shake flask, pH 7.4 buffer / octanol); format: physicochemical; details: octanol/pH 7.4 buffer (shake flask), pH 7.4 buffer / water-saturated octanol, read-out: Experimental logD
Protocol: as §1

[10] = target: T5, Bombyx mori EcR (BmEcR) (Bombyx mori, UniProt P49881); assay: Two-hybrid gene switch assay, BmEcR in NIH3T3 cells; details: BmEcR, Example Two; background FI=3
T5 sequence (P49881 352-589 limits assumed): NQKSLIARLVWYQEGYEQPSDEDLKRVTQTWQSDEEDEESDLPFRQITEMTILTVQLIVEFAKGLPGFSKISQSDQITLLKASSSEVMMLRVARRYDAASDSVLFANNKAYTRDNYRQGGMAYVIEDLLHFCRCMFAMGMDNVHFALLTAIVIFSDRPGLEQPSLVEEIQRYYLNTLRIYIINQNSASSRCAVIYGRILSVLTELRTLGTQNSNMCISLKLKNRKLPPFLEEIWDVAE

[11] = target: Bemisia argentifolii EcR (BaEcR-DEF) (Bemisia argentifolii (Bemisia tabaci biotype B / MEAM1), UniProt A0A6M3RDR8); assay: Two-hybrid gene switch assay, BaEcR-DEF in NIH3T3 cells
Bemisia argentifolii EcR (BaEcR-DEF), sequence (P28702 298-449): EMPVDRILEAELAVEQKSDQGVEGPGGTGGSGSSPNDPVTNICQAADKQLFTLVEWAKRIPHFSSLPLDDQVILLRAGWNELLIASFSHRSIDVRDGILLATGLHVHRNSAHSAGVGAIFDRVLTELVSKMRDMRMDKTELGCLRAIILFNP
Bemisia argentifolii EcR (BaEcR-DEF), sequence (A0A6M3RDR8 entry or part of it): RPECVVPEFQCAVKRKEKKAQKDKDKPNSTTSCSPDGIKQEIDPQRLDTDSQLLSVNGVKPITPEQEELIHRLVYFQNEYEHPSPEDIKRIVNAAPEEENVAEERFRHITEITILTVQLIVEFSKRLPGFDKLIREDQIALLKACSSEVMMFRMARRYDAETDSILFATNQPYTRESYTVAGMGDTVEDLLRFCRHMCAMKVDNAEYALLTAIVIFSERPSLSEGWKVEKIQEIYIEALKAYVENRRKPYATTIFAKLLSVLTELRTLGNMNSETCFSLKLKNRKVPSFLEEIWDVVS

[12] = read-out: EC50 (M), BII bioassay results, D. melanogaster BII cell line, turbidometric
[13] = wt-CfEcR gene switch, NIH3T3, Example One
[14] = Drosophila melanogaster, read-out: EC50 (M), BII bioassay results

## COC1C[C@H]2C(=O)C=C3[C@H](CC[C@]4(C)[C@@H]([C@@](C)(O)C(CCC(C)(C)O)OC)CC[C@@]34O)[C@@]2(C)CC1O (stereo partly shown) [compound 12, 20-hydroxyecdysone, 3,22-dimethyl ether]
[1]; [12]
  EC50: 2.2e-07 M
[2]
  potency of ether relative to parent: lose potency

## CO[C@H](CCC(C)C)[C@](C)(O)[C@H]1CC[C@@]2(O)C3=CC(=O)[C@@H]4C[C@@H](O)[C@@H](O)C[C@]4(C)[C@H]3CC[C@]12C [compound 18, ponasterone A, 22-methyl ether]
[3]; EC50, DmEcR gene switch, NIH3T3, Example One
  EC50: 0.066 µM and ~0.066 µM
[4]; [13]
  RMFI (relative maximum fold induction, relative to diacylhydrazine 30): ~0.6
[1]; [14]
  EC50: 2.2e-08 M
[5]; EC50, AaEcR gene switch, NIH3T3, Example One
  EC50: 0.00038 µM
[6]; EC50, VgEcR/RXR switch in 3T3 cells
  EC50: 553 nM
[6]; EC50, VgEcR/RXR system
  EC50: 533 nM
[6]; VgEcR/RXR system
  RMFI: 1.5

## CC(C)CC[C@@H](O)[C@](C)(O)[C@H]1CC[C@@]2(O)C3=CC(=O)[C@]4(O)C[C@@H](O)[C@@H](O)C[C@]4(C)[C@H]3[C@H](O)C[C@]12C [muristerone A]
[7]
  activity across the tested set of EcRs: active
[4]; [13]
  EC50: 7400 nM
[8]; 25° C.
  Experimental aqueous solubility: > 2900 µg/mL
[5]; AaEcR gene switch, NIH3T3, Example One
  EC50: 0.009 µM
[6]; VgEcR/RXR switch in 3T3 cells
  EC50: 851 nM
[6]; VgEcR/RXR system
  EC50: 851 nM
  RMFI: 1.3

## C=C(C)CC[C@@H](O)[C@](C)(O)[C@H]1CC[C@@]2(O)C3=CC(=O)[C@@H]4C[C@@H](O)[C@@H](O)C[C@]4(C)[C@H]3CC[C@]12C [isostachysterone C, 25,26-didehydroponasterone A]
[7]
  activity across the tested set of EcRs: active

## CO[C@@H]1C[C@H]2C(=O)C=C3[C@H](CC[C@]4(C)[C@@H]([C@@](C)(O)[C@H](O)CCC(C)(C)O)CC[C@@]34O)[C@@]2(C)C[C@@H]1O [compound 2, 20-hydroxyecdysone, 3-methyl ether]
[1]; [12]
  EC50: 6e-07 M
[2]
  potency of ether relative to parent: lose potency

## CO[C@H](CCC(C)(C)O)[C@](C)(O)C1CC[C@@]2(O)C3=CC(=O)C4C[C@@H](O)[C@@H](O)CC4(C)C3CCC12C (stereo partly shown) [compound 4, 20-hydroxyecdysone-22-methyl ether]
[1]
  BII potency relative to 20E: maintains 20E potency
[1]; [14]
  EC50: 6.3e-09 M
[1]; Drosophila melanogaster, read-out: −log EC50 (converted)
  EC50: 6.31e-09 M
[2]
  potency of ether relative to parent: lose potency

## CCc1c(OC)cccc1C(=O)NN(C(=O)c1cc(C)cc(C)c1)C(C)(C)C [diacylhydrazine 30]
[7]; read-out: potency (EC50), lepidopteran receptors
  EC50: 3 to 20 nM
[9]
  logD: 3.4
[4]; NIH3T3, 48 h, read-out: reference FI (1 microM)
  fold induction at 1 µM: 806
[10]
  diacylhydrazine reference FI: 1776
[8]; 25 °C, thermodynamic from solid
  solubility: 6.2 µg/mL (≈ 16.2 µM)
[11]
  EC50: 6000 nM
[5]; Example Two
  potency as activator of AaEcR: single digit nM

## CO[C@H]1C[C@@]2(C)[C@@H](C[C@H]1O)C(=O)C=C1[C@@H]2CC[C@]2(C)[C@@H]([C@@](C)(O)C(O)CCC(C)(C)O)CC[C@@]12O (stereo partly shown) [compound 1, 20-hydroxyecdysone, 2-methyl ether]
[1]; [12]
  EC50: 1.1e-06 M

## CO[C@H](CCC(C)C)[C@](C)(O)[C@H]1CC[C@@]2(O)C3=CC(=O)[C@@H]4C[C@@H](O)[C@@H](O)C[C@]4(C)[C@H]3CC[C@]12C [PoA-22-methyl ether]
[3]; DmEcR, relative to 3,5-dimethyl-benzoic acid N-tert-butyl-N′-(2-ethyl-3-methoxy-benzoyl)-hydrazide
  rel max FI (diacylhydrazine), DM: ~0.9
[3]; EC50 (μM), DM, DmEcR, NIH3T3 cells, luciferase, 48 h, ligand 0.01-33 μM
  EC50: ~0.03 µM
[4]
  EC50: ~2000 nM
[4]; NIH3T3, 48 h, read-out: rel max FI (diacylhydrazine), CF
  Emax: 30 to 65%
[5]; AaEcR, relative to 3,5-dimethyl-benzoic acid N-tert-butyl-N′-(2-ethyl-3-methoxy-benzoyl)-hydrazide
  rel max FI (diacylhydrazine), AA: ~0.8
[5]; EC50 (μM), AA, AaEcR, NIH3T3 cells, luciferase, 48 h, ligand 0.01-33 μM
  EC50: < 0.01 µM

## CCO[C@H](CCC(C)(C)O)[C@](C)(O)C1CC[C@@]2(O)C3=CC(=O)C4C[C@@H](O)[C@@H](O)CC4(C)C3CCC12C (stereo partly shown) [compound 5, 20-hydroxyecdysone-22-ethyl ether]
[4]
  EC50: 4850 nM
[4]; NIH3T3, 48 h, read-out: reporter gene induction, % of maximum fold induction
  activation at 5 µM: 77%
[4]; [13]
  RMFI (relative maximum fold induction, relative to diacylhydrazine 30): 0.77
[1]
  BII potency relative to 20E: slightly less potent than methyl
[1]; [14]
  EC50: 2.2e-08 M

## CCCCO[C@H](CCC(C)(C)O)[C@](C)(O)C1CC[C@@]2(O)C3=CC(=O)C4C[C@@H](O)[C@@H](O)CC4(C)C3CCC12C (stereo partly shown) [compound 8, 20-hydroxyecdysone, 22-n-butyl ether]
[1]; [14]
  EC50: 1e-07 M

## CO[C@H]1C[C@@]2(C)[C@@H](C[C@H]1O)C(=O)C=C1[C@@H]2CC[C@]2(C)[C@@H]([C@@](C)(O)[C@H](O)CCC(C)C)CC[C@@]12O [compound 16, ponasterone A, 2-methyl ether]
[1]; [12]
  EC50: 4.3e-08 M

## CO[C@H](CCC(C)C)[C@](C)(O)C1CC[C@@]2(O)C3=CC(=O)C4C[C@@H](O)[C@@H](O)CC4(C)C3=CCC12C (stereo partly shown) [compound 22, dacryhainansterone, 22-methyl ether]
[4]; [13]
  RMFI (relative maximum fold induction, relative to diacylhydrazine 30): ~0.3
[1]; [14]
  EC50: 1e-07 M
